Measurements published in patent US20070027150A1 (priority 2005, published 2007).

Each compound was assayed against His-tagged N-terminal ATP binding domain (amino acid residues 9-236) of HSP90α (Homo sapiens, UniProt P07900) (assay: HSP90 inhibitor binding potency: TRF competition binding assay). Details: Table I; read-out: Hsp90 IC50 Range.
Experimental: HSP90 Inhibitor Binding Potency: TRF Binding Assay
In this example, the binding potency of HSP90 inhibitors as measured by a TRF binding assay is described.
TRF competition binding assays were performed to determine the binding potency (IC50 values) of HSP90 inhibitors. Purified His-tagged N-terminal ATP binding domain (amino acid residues 9-236) of HSP90α (HSP90α GeneID: 3320; mRNA Sequence NM_005348) was incubated for two hours at room temperature in binding buffer (50 mM HEPES, 6 mM MgCl2, 20 mM KCl and 0.1% BSA) with biotinylated radicicol and progressively higher concentrations of the competing compounds. A fraction of the mixture was transferred to capture plates (coated with streptavidin) and incubated for one hour at room temperature. After washing with DELFIA wash buffer, europium-labeled anti-his antibody was added and incubated for two hours at room temperature, followed by washing with DELFIA buffer. DELFIA enhancement solution was then added. After gentle shaking for 10 minutes, the plates were read in VICTOR for europium counts.
For Cc1nc(N)nc2c1C(=O)CC(c1ccccc1Oc1ccccn1)C2 (centres unmarked) [Compound 141, 2-amino-4-methyl-7-[2-(pyridin-2-yloxy)phenyl]-7,8-dihydroquinazolin-5(6H)-one], the IC50 was under 1000 nM.
With Cc1nc(N)nc2c1C(=O)CC(c1c(C3CCCCC3)cnn1C)C2 (centres unmarked) [Compound 48, 2-amino-7-(4-cyclohexyl-2-methyl-2H-pyrazol-3-yl)-4-methyl-7,8-dihydro-6H-quinazolin-5-one] the IC50 was under 1000 nM.
Work on Cc1nc(N)nc2c1C(=O)CC(c1ccc(F)cc1C1CCCCC1)C2 (centres unmarked) [Compound 172, 2-amino-7-(2-cyclohexyl-4-fluorophenyl)-4-methyl-7,8-dihydroquinazolin-5(6H)-one] yielded an IC50 of 1000 to 10000 nM.
Cc1nc(N)nc2c1C(=O)CC(c1c(OCCN3CCCCC3)cccc1-c1cccnc1F)C2 (centres unmarked) [Compound 155, 2-amino-7-[2-(2-fluoro-pyridin-3-yl)-6-(2-piperidin-1-yl-ethoxy)-phenyl]-4-methyl-7,8-dihydro-6H-quinazolin-5-one] was tested, and the IC50 was under 1000 nM.
Cc1nc(N)nc2c1C(=O)CC(c1ccccc1-c1ccnc(Cl)c1)C2 (centres unmarked) [Compound 82, 2-amino-7-[2-(2-chloropyridin-4-yl)phenyl]-4-methyl-7,8-dihydroquinazolin-5(6H)-one] gave an IC50 of 1000 to 10000 nM.
Work on Cc1ccc(-c2ccccc2C2CC(=O)c3c(C)nc(N)nc3C2)c(F)c1 (centres unmarked) [Compound 77, 2-amino-7-(2′-fluoro-4′-methyl-1,1′-biphenyl-2-yl)-4-methyl-7,8-dihydroquinazolin-5(6H)-one] yielded an IC50 of under 1000 nM.
CCOc1ccccc1C1CC(=O)c2c(C)nc(N)nc2C1 (centres unmarked) [Compound 148, 2-amino-7-(2-ethoxy-phenyl)-4-methyl-7,8-dihydro-6H-quinazolin-5-one] showed an IC50 of under 1000 nM.
Cc1nc(N)nc2c1C(=O)CC(c1ccccc1-c1c(F)cccc1F)C2 (centres unmarked) [Compound 85, 2-amino-7-(2′,6′-difluoro-1,1′-biphenyl-2-yl)-4-methyl-7,8-dihydroquinazolin-5(6H)-one] showed an IC50 of under 1000 nM.
Cc1nc(N)nc2c1C(=O)CC(c1c(-c3ccccn3)cccc1-c1ccccn1)C2 (centres unmarked) [Compound 38, 2-amino-7-(2,6-dipyridin-2-ylphenyl)-4-methyl-7,8-dihydroquinazolin-5(6H)-one] was tested, and the IC50 was under 1000 nM.
Cc1nc(N)nc2c1C(=O)CC(c1cnccc1-c1cccnc1F)C2 (centres unmarked) [Compound 61, 2-amino-7-(2-fluoro-[3,4′]bipyridinyl-3′-yl)-4-methyl-7,8-dihydro-6H-quinazolin-5-one] showed an IC50 of under 1000 nM.
COc1cccc(-c2ccccc2C2CC(=O)c3c(C)nc(N)nc3C2)c1 (centres unmarked) [Compound 69, 2-amino-7-(3′-methoxy-1,1′-biphenyl-2-yl)-4-methyl-7,8-dihydroquinazolin-5(6H)-one] showed an IC50 of 1000 to 10000 nM.
With Cc1nc(N)nc2c1C(=O)CC(c1ccccc1Oc1ccccc1F)C2 (centres unmarked) [Compound 138, 2-amino-7-[2-(2-fluorophenoxy)phenyl]-4-methyl-7,8-dihydroquinazolin-5(6H)-one] the IC50 was under 1000 nM.
COc1cccc(-c2cc(F)ccc2C2CC(=O)c3c(C)nc(N)nc3C2)n1 (centres unmarked) [Compound 130, 2-amino-7-[4-fluoro-2-(6-methoxy-pyridin-2-yl)-phenyl]-4-methyl-7,8-dihydro-6H-quinazolin-5-one] showed an IC50 of under 1000 nM.
With Cc1nc(N)nc2c1C(=O)CC(c1ccccc1Cc1ccccc1)C2 (centres unmarked) [Compound 14, 2-amino-7-(2-benzyl-phenyl)-4-methyl-7,8-dihydro-6H-quinazolin-5-one] the IC50 was under 1000 nM.
Cc1ccc(Oc2ccccc2C2CC(=O)c3c(C)nc(N)nc3C2)cc1 (centres unmarked) [Compound 136, 2-amino-4-methyl-7-[2-(4-methylphenoxy)phenyl]-7,8-dihydroquinazolin-5(6H)-one] gave an IC50 of over 10000 nM.

Same assay, conditions: Table II; read-out: Hsp90 IC50 Range
With CCc1nc(N)nc2c1C(=O)CC(c1ccc(F)cc1-c1cccnc1OC)C2 (centres unmarked) [Compound 317, 2-amino-4-ethyl-7-[4-fluoro-2-(2-methoxy-pyridin-3-yl)-phenyl]-7,8-dihydro-6H-quinazolin-5-one] the IC50 was 1000 to 10000 nM.
Cc1nc(N)nc2c1C(=O)CC(c1cccc(F)c1-c1cccnc1F)C2 (centres unmarked) [Compound 222, 2-amino-7-[3-fluoro-2-(2-fluoro-pyridin-3-yl)-phenyl]-4-methyl-7,8-dihydro-6H-quinazolin-5-one] gave an IC50 of under 1000 nM.
CCOc1cccc(-n2ccnc2C2CC(=O)c3c(C)nc(N)nc3C2)c1 (centres unmarked) [Compound 191, 2-amino-7-[1-(3-ethoxy-phenyl)-1H-imidazol-2-yl]-4-methyl-7,8-dihydro-6H-quinazolin-5-one] was tested, and the IC50 was over 10000 nM.
Work on CCc1nc(N)nc2c1C(=O)CC(c1ccc(F)cc1-c1ccccc1OC)C2 (centres unmarked) [Compound 321, 2-amino-4-ethyl-7-(5-fluoro-2′-methoxy-biphenyl-2-yl)-7,8-dihydro-6H-quinazolin-5-one] yielded an IC50 of 1000 to 10000 nM.
COc1nccnc1-c1cc(F)ccc1C1CC(=O)c2c(C)nc(N)nc2C1 (centres unmarked) [Compound 281, 2-amino-7-[4-fluoro-2-(3-methoxy-pyrazin-2-yl)-phenyl]-4-methyl-7,8-dihydro-6H-quinazolin-5-one] showed an IC50 of under 1000 nM.
For COc1cccc(-c2cccc(F)c2C2CC(=O)c3c(C)nc(N)nc3C2)n1 (centres unmarked) [Compound 220, 2-amino-7-[2-fluoro-6-(6-methoxy-pyridin-2-yl)-phenyl]-4-methyl-7,8-dihydro-6H-quinazolin-5-one], the IC50 was under 1000 nM.
Work on Nc1ncc2c(n1)CC(c1ccc(F)cc1-c1cccnc1F)CC2=O (centres unmarked) [Compound 277, 2-amino-7-[4-fluoro-2-(2-fluoro-pyridin-3-yl)-phenyl]-7,8-dihydro-6H-quinazolin-5-one] yielded an IC50 of under 1000 nM.
COc1ccc(F)c(-c2cc(F)ccc2[C@@H]2CC(=O)c3c(C)nc(N)nc3C2)n1 [Compound 313, (S)-2-amino-7-[4-fluoro-2-(3-fluoro-6-methoxy-pyridin-2-yl)-phenyl]-4-methyl-7,8-dihydro-6H-quinazolin-5-one] gave an IC50 of under 1000 nM.
With COc1cncc(-c2cc(F)ccc2[C@@H]2CC(=O)c3c(C)nc(N)nc3C2)n1 [Compound 226, (S)-2-amino-7-[4-fluoro-2-(6-methoxy-pyrazin-2-yl)-phenyl]-4-methyl-7,8-dihydro-6H-quinazolin-5-one] the IC50 was under 1000 nM.
COc1cnc(-c2cc(F)ccc2[C@@H]2CC(=O)c3c(C)nc(N)nc3C2)nc1OC [Compound 288, (S)-2-amino-7-[2-(4,5-dimethoxy-pyrimidin-2-yl)-4-fluoro-phenyl]-4-methyl-7,8-dihydro-6H-quinazolin-5-one] was tested, and the IC50 was under 1000 nM.
With COc1nc(-c2cc(F)ccc2[C@@H]2CC(=O)c3c(C)nc(N)nc3C2)cnc1C [Compound 332, (S)-2-amino-7-[4-fluoro-2-(6-methoxy-5-methyl-pyrazin-2-yl)-phenyl]-4-methyl-7,8-dihydro-6H-quinazolin-5-one] the IC50 was under 1000 nM.
Compound Cc1nc(N)nc2c1C(=O)CC(c1nccn1-c1ccc(Cl)cc1F)C2 (centres unmarked) [Compound 328, 2-amino-7-[1-(4-chloro-2-fluoro-phenyl)-1H-imidazol-2-yl]-4-methyl-7,8-dihydro-6H-quinazolin-5-one] has an IC50 of 1000 to 10000 nM.
CCc1nc(N)nc2c1C(=O)CC(c1ccc(F)cc1-c1cccc(OC)n1)C2 (centres unmarked) [Compound 316, 2-amino-4-ethyl-7-[4-fluoro-2-(6-methoxy-pyridin-2-yl)-phenyl]-7,8-dihydro-6H-quinazolin-5-one] was tested, and the IC50 was under 1000 nM.
C#Cc1cccc(-n2ccnc2C2CC(=O)c3c(C)nc(N)nc3C2)c1 (centres unmarked) [Compound 197, 2-amino-7-[1-(3-ethynyl-phenyl)-1H-imidazol-2-yl]-4-methyl-7,8-dihydro-6H-quinazolin-5-one] gave an IC50 of under 1000 nM.
